These results are taken from patent US20150051192A1, “BLOCKING OF CUE-INDUCED DRUG REINSTATEMENT” (ALBANY MEDICAL COLLEGE, priority 2012, published 2015).

Entries after “also recorded” stand apart in the source; their conditions may differ. Like-named read-outs stand apart in the source and are kept apart here.

Assay [1] concerns rats. The conditions noted are these: cited from earlier work.
For assay [2], the system named is rats. The conditions noted are these: compared to saline treated rats; cited from earlier work.
The subject of assay [3] is female Sprague-Dawley rats. Briefly: Musical cue-induced reinstatement of cocaine seeking (Experiment 3). The format is in vivo, rat. The conditions noted are these: 18-MC 40 mg/kg i.p. 20 minutes prior to reinstatement test session, vs saline. From the text: Naïve female Sprague-Dawley rats (Taconic Germantown, N.Y.), weighing approximately 250 g at the start of the experiments, were housed individually in a temperature and humidity controlled colony room under a standard 12:12 light/dark cycle. Food and water were provided ad libitum. Protocols were designed and implemented in accordance with the “Guide for the Care and Use of Laboratory Animals” (1996) and were approved by the Institutional Animal Care and Use Committee of Albany Medical College. Rats were given one week of acclimation prior to experimental procedures.
Cocaine hydrochloride (˜0.4 mg/kg/infusion, Sigma-Aldrich, St. Louis, Mo.) was dissolved in 0.9% sodium chloride with a 2 mg/ml drug to saline ratio, and then brought to a neutral physiological pH before use in intravenous (i.v.) self-administration sessions. 18-MC (40 mg/kg, Obiter Research LLC. Champaign, Ill.) and saline were both administered intraperitoneally (i.p.). Animals were anesthetized with sodium pentobarbital (50 mg/kg, i.p.) for both intrajugular and microdialysis cannulation surgeries. Sodium methohexital (10 mg/kg) was used to verify catheter patency. All other reagents used in conjunction with microdialysis experiments were obtained from local suppliers and were of analytical grade.
Miles Davis' “Four” (Prestige Blue Haze, 1954) was the musical track used as a contextual cue in these experiments. The Miles Davis selection was chosen because it had been used successfully in past conditioning paradigms in our laboratory (Polston et al, 2011b). This musical selection was originally chosen because it has a repetitive beat and melody, helping to make it easily recognizable and identifiable. During drug training, self-administration, and applicable test sessions, “Four” was played on a continuous loop, at a volume staying between 65 and 75 decibels. This decibel range was chosen because it had been used successfully in past investigations involving rats and music (Feduccia et al, 2008; Otsuka et al, 2009; Polston et al, 2011b).
Experiments were conducted in rat operant conditioning chambers (ENV-009, Med Associates, St. Albans, Vt.) located within sound attenuated boxes outfitted with acoustical foam. The operant boxes were continuously ventilated with a house fan, and equipped with two retractable levers spaced approximately 20 cm apart on the front wall, with a house light mounted on the back wall of the test chamber. […] By operationally defining the floor (30.5 cm×31.8 cm) of the test chamber, and dividing it into three spatial zones, the program automatically generated detailed readings of the time spent in each zone in seconds and the distance that the animal traveled in meters. […] Videos were also periodically recorded and analyzed to ensure that Anymaze was functioning correctly. […]

Assay [4] has as its system study animals. The conditions noted are these: cited from earlier work.
The test system of assay [5] is study animals. Conditions: cited from earlier work. This is another data set of the same source.
The conditions of assay [6]: in vivo, cited from earlier work.

Turning to `COCC[C@H]1CC2CN3CCc4c([nH]c5ccccc45)[C@](C(=O)OC)(C2)[C@H]13` [18-MC, 18-Methoxycoronaridine], in the assay on rats [1], the “nicotine, cocaine, morphine, methamphetamine, and ethanol self-administration” value is reported as “reduce”. For the same molecule, in the assay on rats [2], the locomotor effects alone result is “produces no locomotor effects alone”. The “time spent in the inactive or back zones, reinstatement test session” value in assay [3] (inactive p=0.488, back p=0.082) was “no effect of Treatment”. Also, the “active lever responses on the reinstatement test day” value in assay [3] (musical cue, p<0.001) was “significantly fewer active lever responses; also recorded: significantly attenuated responses”. For the same molecule, the “time spent in the active zone, reinstatement test session” value in assay [3] (p<0.01) is on record as “significant decrease; also recorded: significantly decreased”. The “locomotor activity on the reinstatement test day” value in assay [3] (p=0.143) is recorded as “no significant differences between groups; also recorded: produced no changes in locomotor activity”. Moreover, in the assay with study animals [4] (local administration into both the medial habenula and the interpeduncular nucleus), the “sensitized dopamine responses in the nucleus accumbens” value is “produced similar results”. The “sensitized dopamine responses to both morphine and cocaine in the nucleus accumbens” value in the assay on study animals [4] (systemic 18-MC 40 mg/kg pretreatment 19 hours beforehand, chronic dosing models) is recorded as “abolished”. The “effect on drug self-administration” value in the assay on study animals [5] (10 μg administered into the interpeduncular nucleus) is reported as “effective”; with study animals [5] (10 μg administered into the ventral tegmental area), “no effect”. Also, the “morphine, methamphetamine, and nicotine self-administration” value in the assay with study animals [5] (locally administered into the medial habenula) was “decreased”. Also, the “acquisition of a cocaine conditioned place preference” value is “able to block the acquisition” in assay [6] and “block acquisition” in assay [6] (listed as 18MC).
